Results taken from ChEMBL document CHEMBL5303573, “Mapping human microbiome drug metabolism by gut bacteria and their genes” (Nature, 2019).

How the values were obtained:
[1] = The drug is tested on Bacteroides finegoldii strain: DSM17565 for biotransformation. The drug concentrations were measured before and after a 12-h incubation by liquid-chromatography-coupled mass spectrometry (LC–MS); settings: 2 µM
[2] = The drug is tested on Bacteroides fragilis strain: ATCC43859 for biotransformation. The drug concentrations were measured before and after a 12-h incubation by liquid-chromatography-coupled mass spectrometry (LC–MS); settings: 2 µM
[3] = The drug is tested on Anaerococcus hydrogenalis strain: DSM7454 for biotransformation. The drug concentrations were measured before and after a 12-h incubation by liquid-chromatography-coupled mass spectrometry (LC–MS); settings: 2 µM
[4] = The drug is tested on Anaerotruncus colihominis strain: DSM17241 for biotransformation. The drug concentrations were measured before and after a 12-h incubation by liquid-chromatography-coupled mass spectrometry (LC–MS); settings: 2 µM
[5] = The drug is tested on Clostridium ramosum strain: DSM1402 for biotransformation. The drug concentrations were measured before and after a 12-h incubation by liquid-chromatography-coupled mass spectrometry (LC–MS); settings: thomasclavelia ramosa, 2 µM
[6] = The drug is tested on Clostridium symbiosum strain: ATCC14940 for biotransformation. The drug concentrations were measured before and after a 12-h incubation by liquid-chromatography-coupled mass spectrometry (LC–MS); settings: 2 µM
[7] = The drug is tested on Coprococcus comes strain: ATCC27758 for biotransformation. The drug concentrations were measured before and after a 12-h incubation by liquid-chromatography-coupled mass spectrometry (LC–MS); type: ADME; parameters: dose 2 uM, timepoint 0 vs 12 hours; settings: 2 µM
[8] = The drug is tested on Enterococcus faecalis strain: V583 for biotransformation. The drug concentrations were measured before and after a 12-h incubation by liquid-chromatography-coupled mass spectrometry (LC–MS); settings: 2 µM
[9] = The drug is tested on Eubacterium hallii strain: DSM3353 for biotransformation. The drug concentrations were measured before and after a 12-h incubation by liquid-chromatography-coupled mass spectrometry (LC–MS); settings: anaerobutyricum hallii, 2 µM
[10] = The drug is tested on Subdoligranulum variabile strain: DSM15176 for biotransformation. The drug concentrations were measured before and after a 12-h incubation by liquid-chromatography-coupled mass spectrometry (LC–MS); settings: 2 µM
[11] = The drug is tested on Edwardsiella tarda strain: ATCC23685 for biotransformation. The drug concentrations were measured before and after a 12-h incubation by liquid-chromatography-coupled mass spectrometry (LC–MS); settings: 2 µM
[12] = The drug is tested on Escherichia coli strain: BW25113 for biotransformation. The drug concentrations were measured before and after a 12-h incubation by liquid-chromatography-coupled mass spectrometry (LC–MS); settings: 2 µM
[13] = bacteroides thetaiotaomicron, 12 h, 2 µM
Description: The drug is tested on Bacteroides thetaiotaomicron strain: 3731 for biotransformation. The drug concentrations were measured before and after a 12-h incubation by liquid-chromatography-coupled mass spectrometry (LC–MS)

[14] = roseburia intestinalis, 12 h, 2 µM
Description: The drug is tested on Roseburia intestinalis strain: L1-82 for biotransformation. The drug concentrations were measured before and after a 12-h incubation by liquid-chromatography-coupled mass spectrometry (LC–MS)

[15] = akkermansia muciniphila, 12 h, 2 µM
Description: The drug is tested on Akkermansia muciniphila strain: ATCC BAA-835 for biotransformation. The drug concentrations were measured before and after a 12-h incubation by liquid-chromatography-coupled mass spectrometry (LC–MS)

[16] = The drug is tested on Bifidobacterium ruminantium strain: fecal isolate for biotransformation. The drug concentrations were measured before and after a 12-h incubation by liquid-chromatography-coupled mass spectrometry (LC–MS); settings: 2 µM
[17] = The drug is tested on Bacteroides coprophilus strain: DSM18228 for biotransformation. The drug concentrations were measured before and after a 12-h incubation by liquid-chromatography-coupled mass spectrometry (LC–MS); settings: 2 µM
[18] = bacteroides fragilis, 12 h, 2 µM
Description: The drug is tested on Bacteroides fragilis strain: DS-208 for biotransformation. The drug concentrations were measured before and after a 12-h incubation by liquid-chromatography-coupled mass spectrometry (LC–MS)

[19] = bacteroides stercoris, 12 h, 2 µM
Description: The drug is tested on Bacteroides stercoris strain: ATCC43183 for biotransformation. The drug concentrations were measured before and after a 12-h incubation by liquid-chromatography-coupled mass spectrometry (LC–MS)

[20] = The drug is tested on Eubacterium ventriosum strain: ATCC27560 for biotransformation. The drug concentrations were measured before and after a 12-h incubation by liquid-chromatography-coupled mass spectrometry (LC–MS); type: ADME; parameters: dose 2 uM, timepoint 0 vs 12 hours; settings: 2 µM

Compound | Bacterial Biotransformation [1] | Bacterial Biotransformation [2] | Bacterial Biotransformation [3] | Bacterial Biotransformation [4] | Bacterial Biotransformation [5] | Bacterial Biotransformation [6] | Bacterial Biotransformation [7] | Bacterial Biotransformation [8] | Bacterial Biotransformation [9] | Bacterial Biotransformation [10] | Bacterial Biotransformation [11] | Bacterial Biotransformation [12] | Bacterial Biotransformation [13] | Bacterial Biotransformation [14] | Bacterial Biotransformation [15] | Bacterial Biotransformation [16] | Bacterial Biotransformation [17] | Bacterial Biotransformation [18] | Bacterial Biotransformation [19] | Bacterial Biotransformation [20]
CCN(CC)CCNC(=O)c1cc(S(C)(=O)=O)ccc1OC [TIAPRIDE] | Compound NOT metabolized | Compound NOT metabolized | Compound NOT metabolized | Compound NOT metabolized | Compound NOT metabolized | Compound NOT metabolized | Compound NOT metabolized | Compound NOT metabolized | Compound NOT metabolized | Compound NOT metabolized | Compound NOT metabolized | Compound NOT metabolized | Compound NOT metabolized | Compound NOT metabolized | Compound NOT metabolized | – | – | – | – | –
CC(=O)O[C@H]1C(=O)[C@@]2(C)[C@H]([C@H](OC(=O)c3ccccc3)[C@]3(O)C[C@H](OC(=O)[C@H](O)[C@@H](NC(=O)c4ccccc4)c4ccccc4)C(C)=C1C3(C)C)[C@]1(OC(C)=O)CO[C@@H]1C[C@@H]2O [PACLITAXEL] | Compound NOT metabolized | Compound NOT metabolized | Compound NOT metabolized | Compound NOT metabolized | Compound NOT metabolized | Compound NOT metabolized | Compound NOT metabolized | Compound NOT metabolized | Compound NOT metabolized | Compound NOT metabolized | Compound NOT metabolized | Compound NOT metabolized | Compound NOT metabolized | Compound NOT metabolized | Compound NOT metabolized | Compound NOT metabolized | Compound NOT metabolized | Compound metabolized | Compound NOT metabolized | –
CCC(=O)NCC[C@@H]1CCc2ccc3c(c21)CCO3 [RAMELTEON] | Compound NOT metabolized | Compound metabolized | Compound NOT metabolized | Compound NOT metabolized | Compound NOT metabolized | Compound NOT metabolized | Compound NOT metabolized | Compound NOT metabolized | Compound NOT metabolized | Compound NOT metabolized | Compound NOT metabolized | Compound NOT metabolized | Compound metabolized | – | – | Compound NOT metabolized | Compound NOT metabolized | Compound metabolized | Compound metabolized | Compound NOT metabolized
COc1c2occc2cc2ccc(=O)oc12 [METHOXSALEN] | Compound metabolized | Compound metabolized | Compound NOT metabolized | Compound NOT metabolized | Compound metabolized | Compound metabolized | Compound metabolized | Compound NOT metabolized | Compound metabolized | Compound NOT metabolized | Compound NOT metabolized | Compound NOT metabolized | – | Compound metabolized | – | Compound NOT metabolized | – | – | – | Compound NOT metabolized
COc1ccc(/C=C/C(=O)Nc2ccccc2C(=O)O)cc1OC | Compound metabolized | Compound NOT metabolized | Compound metabolized | Compound NOT metabolized | Compound NOT metabolized | Compound NOT metabolized | Compound NOT metabolized | Compound NOT metabolized | Compound NOT metabolized | Compound NOT metabolized | Compound NOT metabolized | Compound NOT metabolized | Compound NOT metabolized | Compound NOT metabolized | Compound NOT metabolized | – | Compound NOT metabolized | Compound NOT metabolized | Compound NOT metabolized | –
